Results from paper PMC11768370, “Etodolac Single Dose Metabolic Profile Elucidation: Pharmacokinetics and Adverse Events in Healthy Volunteers” (Pharmaceuticals, 2025).

Tested on: plasma metabolites
Assay: Untargeted plasma metabolomic profile pre-dose (T0) vs post-dose (Tmax), UPLC-QToF
Format: in vivo, human
Settings: healthy volunteers, single dose 500 mg
Method: Samples were collected at two times: (i) baseline samples (time 0 h), termed the pre-dose group, and (ii) samples at maximum drug concentration (Cmax), termed the post-dose group. Samples were randomized, and 25 μL of each was collected to form a pooled sample for quality control (QC). An aliquot of plasma (200 μL) was extracted by adding cold methanol (400 μL) for protein precipitation. The samples were then vortexed for 30 s and centrifuged at 12,879× g for 10 min at 4 °C. Finally, the supernatant (400 μL) was collected and dried over a stream of nitrogen gas (N2). Samples were resuspended with 200 µL of acetonitrile (ACN)/water (H2O) (1:1 v/v). Sample extraction and analysis were randomized to reduce instrumental and biological bias. QC samples were analyzed every 10 samples to check for variations in extraction and system stability.
The analysis was adapted and performed on an ACQUITY® FTN H Class (Waters, Newcastle, UK) liquid chromatography (UPLC) coupled to a XEVO-G2XS (QToF) quadrupole time-of-flight mass spectrometer (UPLC-QToF) (Waters, Manchester, UK) equipped with an electrospray ionization (ESI) source operated in the positive and negative ionization mode, separately. An ACQUITY UPLC ® CSH C18 column (2.1 mm × 100 mm × 1.7 µm, Waters, Newcastle, UK) was employed as a stationary phase. […]

## CCc1cccc2c3c([nH]c12)C(CC)(CC(=O)O)OCC3 (centres unmarked) [Etodolac]
  6-ketoprostaglandin E1 relative abundance at Tmax compared to T0: increases twist time in relative abundance
  15-epi-lipoxin A4 relative abundance at Tmax compared to T0: increases in relative abundance
